The values that follow come from patent US20130157261A1, “Compositions and Methods for Quantitative Histology, Calibration of Images in Fluorescence Microscopy, and ddTUNEL Analyses” (The Methodist Hospital Research Institute, priority 2011, published 2013).

Experiment [1] has as its system U87 cells. Kind of experiment: ddTUNEL assay (3′OH DNA ends). To be noted: for ddTUNEL: approximate concentration of the probe in the cells: U87 cells following treatment, nominal path length of 6 μm, control 3.7. The experiment is classed as cell-based, human. As for the experimental part:
ddTUNEL reaction buffer was prepared fresh daily by diluting a previously-frozen) stock solution of ddTUNEL buffer 1:5, and solution of cobalt chloride 1:25.
Stock reaction buffer, 5×: 125 mM Tris-HCl, 1 M sodium cacodylate, 1.25 mg/mL BSA, pH 6.6. Stock reaction CoCl2 solution, 25×: 25 mM cobalt chloride.
1. Wash samples twice in ddTUNEL reaction buffer for 10 min each.
2. Incubate sections in ddTUNEL reaction solution for 1-2 h at 37-40° C. in humidified chamber or overnight at room temperature.
5. Incubate with fluorescently labeled avidin or streptavidin ([…]) for 30 min.
(§1) U87 human glioblastoma cells were grown in DMEM with penicillin/streptomycin and 10% fetal bovine serum (FBS) (Invitrogen). Following 3-weeks' growth, 5 mL of cells were plated into slide chambers (Lab-Tek, Nalge Nunc International, Rochester, N.Y., USA) at 2×10^5 cells per mL, and grown for 24 hrs at 37° C. in a 5% CO2 incubator. […] 24-hrs' later, cells were fixed with 2% PFA, then permeabilized in 0.1% Triton X-100® as described above.

The subject of experiment [2] is U87 cells. The experiment in a line: LD50 of stressors on the cells over a 24-hr incubation. Type of experiment: cell-based, human.
Experiment [3] concerns U87 cells. The experiment in a line: in situ ligation of blunt-ended and 3′-T-OH overhanging oligonucleotide probes (DNA breaks). The experiment is classed as cell-based, human. To be noted: for number of 3′-T-OH overhang ends / overhanging cuts / number of blunt-ended breaks: 24 hrs after treatment at LD50 concentration; for blebbing of treated cells: microscopy. The procedure:
U87, human glioblastoma, cells were obtained from the American TypeCulture Collection (ATCC) Manassas, Va. and grown as recommended in DMEM with penicillin/streptomycin and 10% FBS. Following 3 weeks of growth and splitting cells were plated into slide chambers (Lab-Tek Nalge Nunc International, Rochester, N.Y., USA) at 2×10^5 cells per mL, and were allowed to grow thereon for 24 hrs until confluence was reached.
Twenty-four hrs after treatment, all cells were fixed with 4% PFA for one hr and washed 3× in 0.1 M PBS, incubated in 0.1% Triton-X100® for 6 min and then washed in 0.1 M PBS buffer. Each slide was assayed for double-strand DNA blunt-ended and overhanging 3′-OH ends, and counterstained for DNA with YO-PRO-1®.
The 3′-OH T specific overhang and blunt-ended DNA probes, shown in FIG. 2A and FIG. 2B, were ligated to the known oligonucleotide standard phantoms the amine apex oligoneuleotides, or alternatively, to fixed permeabilized U87 cells. The sections were pre-incubated in the ligation buffer without the probe (66 mM Tris-HCl, pH 7.5, 5 mM MgCl2, 0.1 mM dithioerythritol, 1 mM ATP, and 15% polyethylene glycol-8000) to ensure even saturation. The buffer was aspirated, and the full ligation mix containing the ligation buffer with probe, 35 μg/μL, and 0.5 U/μL T4 DNA ligase (New England BioLabs; Ipswich, Mass., USA) was applied to the sections, which were then incubated in a humidified box overnight.
The 3′-OH T-specific overhanging- and blunt-ended DNA probes shown in FIG. 11B were ligated to oligonucleotide standard phantoms, mammary gland or to fixed, permeabilized U87 cells. The sections were pre-incubated with ligation buffer in the absence of the probe (66 mM-Tris HCl, pH 7.5, 5 mM MgCl2, 0.1 mM dithioerythritol, 1 mM ATP, and 15% polyethylene glycol-8000) to ensure even saturation. The buffer was aspirated and the full ligation mix [ligation buffer+probe (35 μg/μL) and T4 DNA ligase (0.5 U/μL)] was applied to the sections, which were then incubated in a humidified box overnight. Controls consisted of probe-ligated phantoms, which were then incubated with either EcoRI or BamHI, in the appropriate buffer for 4 hrs, washed, cover-slipped using Fluoromount-G™ (SouthernBiotech), and then sealed with nail varnish.
(§2) Human glioblastoma cells (U87) (American Type Culture Collection, Manassas, Va., USA), and grown as recommended in DMEM with penicillin/streptomycin and 10% FBS. Following 3-weeks' growth and splitting, 5 mL of cells were plated into microscope slide chambers (Lab-Tek) at […], and were allowed to grow in the slide chambers for 24 hrs, until they became confluent. […] 24 hrs after treatment, all cells were fixed with 2% PFA for 1 hr, washed 3× in 0.1 M PBS, then incubated in 0.1% Triton X-100® for 6 min and finally washed in 0.1 M PBS buffer. Each slide was assayed for double-strand blunt (red) and overhanging (blue) DNA damage, and counterstained for DNA with YO-PRO-1® (green) or for γH2A.X with an FITC-labeled IgG antibody (green).

The subject of experiment [4] is U87 cells. Kind of experiment: γ-H2A.X histone labelling with FITC-labeled antibody. Type of experiment: cell-based, human. To be noted: 24 hrs. As for the experimental part: FITC-labeled Anti-H2A.X histone monoclonal antibody (BioLegend, San Diego, Calif.) was used as an internal control for DNA breaks, at a 1/50 dilution after the samples were blocked with 10% horse serum.
as §2
After incubation with 10% horse sera and washing, Ser139-phosphorylated H2A.X histone was imaged using an FITC-labeled monoclonal antibody (Biolegend, San Diego, Calif., USA) (1:500) following the methods of the manufacturer. Immune cell marker CD3ε was imaged using an FITC-labeled monoclonal antibody (Santa Cruz Biotechnologies, Santa Cruz, Calif.) (also at 1:500) as recommended by the manufacturer.

Experiment [5] deals with U87 cells. Kind of experiment: Fpg-ddTUNEL assay (oxidized/acylated DNA bases), with or without NaBH4 reduction. Conditions: for Fpg-ddTUNEL: approximate concentration of the probe in the cells: U87 cells following treatment, nominal path length of 6 μm, control 0.9; for effect of NaBH4 reduction on the Fpg-ddTUNEL signal / oxo-base levels: ethanolic NaBH4. The experiment is classed as cell-based, human. The procedure:
Each sample was incubated in 25 mM sodium borohydride in 70% ethanol for 30 min. The sample was then washed twice in 0.1 M PBS. Typically, a slide box was employed, and it was half-filled with reducing solution so that half the sample(s) on the slide were reduced.
The sample was washed twice in 10 mM HEPES, 10 mM NaCl, 2 mM EDTA and 0.1% BSA and then ≈50 μL of the same buffer containing 100 U/mL of Fpg was applied to each of the sections, which were then incubated in a humidified box for ≧4 hr. The sample was washed twice in 100 mM PBS, and then twice in NEBuffer3. Approximately 50 μL of the same buffer containing 100 U/mL of CIAP was then applied to each section, and incubated for ≧2 hrs.
1. After completing both ddTUNEL and CIAP-ddTUNEL, each sample is washed twice in Fpg-buffer (Affymetrix) for 10 min.
2. Samples are then incubated in 100 U/mL Fpg (Affymetrix) in Fpg Buffer for 2 hr at 37° C. (or, alternatively, overnight at room temperature).
Following ddTUNEL and CIAP-ddTUNEL, capping 3′OH/3′PO4 ends, samples were washed twice in 10 mM HEPES, 10 mM NaCl, 2 mM EDTA and 0.1% BSA and then ≈50 μL of the same buffer containing 100 U/mL of Fpg was applied to each of the sections, and then incubated in a humidified box ≧4 hrs. Each sample was washed twice in 100 mM PBS, twice in NEBuffer3 and ≈50 μL of the same buffer containing 100 U/mL of CIAP was applied to each section and incubated for ≧2 hr; samples then underwent a third round of ddTUNEL.
as §1

The subject of experiment [6] is normal human astrocytes (NHA). To be noted: ethylmercury treatment (FIG. 21).
Experimental: Normal human astrocytes (NHA) were obtained from Lonza (Walkersville, Md., USA) and grown subject to their recommendations. NHA were grown to confluency in Astrocyte Cell Basal Medium supplemented with 3% FBS, Glutamine, Insulin, fhEGF, GA-1000 and ascorbic acid in 16-well Lab-Tek slide chambers (Nalge Nunc, Rochester, N.Y., USA), in a total volume of 240 μL.
NHA were incubated for 1 hour with probes before fixation. Fixation in buffered paraformaldehyde (PFA) was performed in two stages. Firstly, a 50-4 aliquot of ice-cold 8% PFA was added to each well, then gently aspirated and the wells were twice washed with ice-cold 2% PFA and then allowed to completely fix at 4° C. After fixation, cells were washed twice in 1×PBS (Thermo Fisher Scientific, Rockford, Ill., USA). The tanks were then removed from the slides, the well area covered with Fluoromount-G (SouthernBiotech, Ill., USA), cover-slipped and sealed with nail varnish.
3% FCS was present in the NHA medium throughout the time-course. To generate the time-course shown in FIG. 17A and FIG. 17B, NHA were exposed to Mitotracker, H2DCFAM and Hoechst at t=0.

As to `O=NN(CCCl)C(=O)NCCCl` [Carmustine, N,N′-bis(2-chloroethyl)-N-nitroso-urea], the “ddTUNEL: approximate concentration of the probe in the cells” value in the experiment with U87 cells [1] was found to be 22.8 µM. Besides, in the experiment with U87 cells [1] (U87 cells, vs control), the “increase in ddTUNEL” value is “six-fold”. Moreover, the LD50 with U87 cells [2] is 2.5 µM. In addition, in the experiment with U87 cells [3], the “number of 3′-T-OH overhang ends / overhanging cuts” value is approximately 350 per million base pairs and the “number of blunt-ended breaks” value is on record as “approximately 900 per million base pairs”. Further, in the experiment on U87 cells [3] (24 hrs, Example 2), the “change in blunt-ended breaks” value was “massive increases” and the “increase in levels of overhangs” value is on record as “more than an order of magnitude”. For the same compound, the “blebbing of treated cells” value with U87 cells [3] (24 hrs) is “formation of small blebs”. Moreover, in the experiment with U87 cells [4], the “difference in cytosolic γ-H2A.X levels, carmustine-treated vs temozolomide-treated cells” value turned out to be 10 fold and the “transfer of γ-H2A.X into the cytosol” value is given as “transfer of γ-H2A.X into the cytosol”. Moreover, the “Fpg-ddTUNEL: approximate concentration of the probe in the cells” value (“Fpg-ddTUNEL: approximate concentration” for short) in the experiment with U87 cells [5] is 5.2 µM. Besides, in the experiment on U87 cells [5] (U87 cells), the “effect of NaBH4 reduction on the Fpg-ddTUNEL signal / oxo-base levels” value is on record as “unaltered by reduction”. For the same compound, in the experiment on U87 cells [5] (U87 cells, vs control), the “increase in Fpg-ddTUNEL” value is “six-fold”.
In the case of `OO` [H2O2, hydrogen peroxide], the “ddTUNEL: approximate concentration of the probe in the cells” value with U87 cells [1] came out at 9.4 µM. Further, the LD50 in the experiment with U87 cells [2] was found to be 1000 µM. The “blebbing of treated cells” value in the experiment with U87 cells [3] (24 hrs) was “formation of blebs”. In the experiment with U87 cells [5], the “Fpg-ddTUNEL: approximate concentration” value turned out to be 4.5 µM. For the same compound, the “effect of NaBH4 reduction on the Fpg-ddTUNEL signal / oxo-base levels” value with U87 cells [5] (U87 cells) is reported as “redox sensitive”.
On to `CCc1c2c(nc3ccc(OC(=O)N4CCC(N5CCCCC5)CC4)cc13)-c1cc3c(c(=O)n1C2)COC(=O)[C@]3(O)CC` [Irinotecan, (S)-4,11-diethyl-3,4,12,14-tetrahydro-4-hydroxy-3,14-dioxo1H-pyrano[3′,4′:6,7]-indolizino[1,2-b]quinolin-9-yl-[1,4′bipiperidine]-1′-carboxylate], for which the “ddTUNEL: approximate concentration of the probe in the cells” value in the experiment on U87 cells [1] is 7.4 µM. Further, in the experiment with U87 cells [3], the “number of 3′-T-OH overhang ends / overhanging cuts” value is on record as 119 per million base pairs and the “number of blunt-ended breaks” value is listed as 285 per million base pairs. In addition, the “difference in overhang breaks vs control cells” value in the experiment with U87 cells [3] (24 hrs, Example 2) is “greater than 50 ×”. Further, in the experiment on U87 cells [3] (vs control cells (FIG. 7)), the “increase in number of blunt-ended breaks” value is listed as “more than 50%” and the “increase in number of overhanging breaks” value was approximately 3 fold. The “Fpg-ddTUNEL: approximate concentration” value with U87 cells [5] came to 1.7 µM. The “effect of NaBH4 reduction on the Fpg-ddTUNEL signal / oxo-base levels” value in the experiment with U87 cells [5] (U87 cells) is “unaltered by reduction”.
Take `C[n+]1ccc(-c2cc[n+](C)cc2)cc1` [Paraquat]: the “ddTUNEL: approximate concentration of the probe in the cells” value with U87 cells [1] stood at 37.2 µM. In the experiment on U87 cells [2], the LD50 turned out to be 300 µM. Further, the “blebbing of treated cells” value was “no blebbing apparent” with U87 cells [3] (24 hrs) and “no evidence of blebbing” with U87 cells [3] (24 hrs, listed as paraquat). Also, the “share of γ-H2AX found in the cytosol” value in the experiment on U87 cells [4] stood at 65%. Moreover, the “Fpg-ddTUNEL: approximate concentration” value with U87 cells [5] amounted to 6.3 µM.
In the case of `Cn1nnc2c(C(N)=O)ncn2c1=O` [Temozolomide], in the experiment with U87 cells [1], the “ddTUNEL: approximate concentration of the probe in the cells” value was found to be 8.7 µM. The same compound had an LD50 with U87 cells [2] of 25 µM. Further, in the experiment with U87 cells [3], the “number of 3′-T-OH overhang ends / overhanging cuts” value is recorded as approximately 350 per million base pairs and the “number of blunt-ended breaks” value was “approximately 900 per million base pairs”. For the same compound, the “difference in levels of blunt-end breaks vs control cells” value with U87 cells [3] (24 hrs, Example 2) was “greater than 30 ×”. Further, the “Fpg-ddTUNEL: approximate concentration” value in the experiment on U87 cells [5] was 13.7 µM.
Regarding `C[CH2][Hg]` [ethylmercury], the “formation of dichlorofluorescein from H2DCF-AM greater than superoxide/carbonyl formation” value in experiment [6] is listed as “approximately 20%”.
